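All cell lines were grown in 96-well plates and treated with compound for 48 hours. Abbreviation: GI50, concentration required for 50% inhibition of growth.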 The source made the active and inactive calls. Rule as the data show it: active = GI50 up to about 1.1 µM and inactive = higher.
Key:
Assay in all cases: inhibition of tumour cell growth, NCI panel, 48 h
KM-20L2 = system: KM-20L2
SNB-19 = system: SNB-19
IGROV-1 = system: IGROV-1
COLO 205 = system: COLO 205
CCRF-CEM = system: CCRF-CEM
KM12 = system: KM12
U-251 = system: U-251
SK-MEL-2 = system: SK-MEL-2
CAKI-1 = system: CAKI-1
SNB-75 = system: SNB-75
SK-MEL-5 = system: SK-MEL-5
SF-295 = system: SF-295
OVCAR-8 = system: OVCAR-8
SR = system: SR
A498 = system: A498
M14 = system: M14
HOP-92 = system: HOP-92

Nc1nc(N)c2ncn(CCOC(c3ccccc3)P(=O)(O)O)c2n1 (stereo not drawn)
GI50 (KM-20L2): > 100 µM (inactive) | GI50 (SNB-19): > 100 µM (inactive) | GI50 (IGROV-1): > 100 µM (inactive) | GI50 (COLO 205): > 100 µM (inactive) | GI50 (CCRF-CEM): > 100 µM (inactive) | GI50 (KM12): > 100 µM (inactive) | GI50 (U-251): > 100 µM (inactive) | GI50 (SK-MEL-2): > 100 µM (inactive) | GI50 (CAKI-1): > 100 µM (inactive) | GI50 (SNB-75): > 100 µM (inactive) | GI50 (SK-MEL-5): > 100 µM (inactive) | GI50 (SF-295): > 100 µM (inactive) | GI50 (OVCAR-8): > 100 µM (inactive) | GI50 (SR): > 100 µM (inactive) | GI50 (A498): > 100 µM (inactive)

Cc1cc(C2CCCCC2)n(O)c(=O)c1 [CICLOPIROX OLAMINE]
GI50 (M14): 14.2 µM (inactive) | GI50 (KM-20L2): 12 µM (inactive) | GI50 (SNB-19): 11.6 µM (inactive) | GI50 (IGROV-1): 3.46 µM (inactive) | GI50 (COLO 205): 39.4 µM (inactive) | GI50 (CCRF-CEM): 1.1 µM (active) | GI50 (KM12): 4.66 µM (inactive) | GI50 (U-251): 0.498 µM (active) | GI50 (HOP-92): 0.605 µM (active) | GI50 (SK-MEL-2): 21.3 µM (inactive) | GI50 (SNB-75): 5.46 µM (inactive) | GI50 (SK-MEL-5): 10.4 µM (inactive) | GI50 (SF-295): 3.81 µM (inactive) | GI50 (OVCAR-8): 3.22 µM (inactive) | GI50 (SR): 2.95 µM (inactive) | GI50 (A498): 14.7 µM (inactive)

COc1cc(C(=O)CC2(O)C(=O)Nc3c(Cl)cc(Cl)cc32)ccc1O (stereo not drawn)
GI50 (M14): 66.7 µM (inactive) | GI50 (KM-20L2): 61.4 µM (inactive) | GI50 (SNB-19): 76.7 µM (inactive) | GI50 (COLO 205): 28.7 µM (inactive) | GI50 (CCRF-CEM): 36.6 µM (inactive) | GI50 (KM12): 78.3 µM (inactive) | GI50 (U-251): 69 µM (inactive) | GI50 (HOP-92): 23.8 µM (inactive) | GI50 (SK-MEL-2): 87.1 µM (inactive) | GI50 (CAKI-1): 56.2 µM (inactive) | GI50 (SNB-75): 24.2 µM (inactive) | GI50 (SK-MEL-5): 27.6 µM (inactive) | GI50 (SF-295): 69.2 µM (inactive) | GI50 (OVCAR-8): 63 µM (inactive)

COc1cc(C)c2c(c1C)OC(=O)c1c(C)c(Cl)c(O)c(C=O)c1O2
GI50 (M14): 18.4 µM (inactive) | GI50 (KM-20L2): 22.6 µM (inactive) | GI50 (SNB-19): 19.1 µM (inactive) | GI50 (IGROV-1): 24.2 µM (inactive) | GI50 (COLO 205): 29.2 µM (inactive) | GI50 (CCRF-CEM): 9.18 µM (inactive) | GI50 (KM12): 15.4 µM (inactive) | GI50 (U-251): 6.41 µM (inactive) | GI50 (CAKI-1): 52.2 µM (inactive) | GI50 (SNB-75): 14.3 µM (inactive) | GI50 (SK-MEL-5): 60.1 µM (inactive) | GI50 (SF-295): > 10 µM (inactive) | GI50 (OVCAR-8): 10.2 µM (inactive) | GI50 (SR): 14.3 µM (inactive) | GI50 (A498): 13.9 µM (inactive)

O=[N+]([O-])c1ccc2nc3ccscc-3c2c1
GI50 (M14): 16 µM (inactive) | GI50 (KM-20L2): 25.2 µM (inactive) | GI50 (SNB-19): 6.98 µM (inactive) | GI50 (IGROV-1): 27.4 µM (inactive) | GI50 (COLO 205): 18.5 µM (inactive) | GI50 (CCRF-CEM): 5 µM (inactive) | GI50 (KM12): 7.52 µM (inactive) | GI50 (U-251): 7.76 µM (inactive) | GI50 (HOP-92): 10.8 µM (inactive) | GI50 (SK-MEL-2): 6.75 µM (inactive) | GI50 (CAKI-1): 13 µM (inactive) | GI50 (SK-MEL-5): 7.31 µM (inactive) | GI50 (SF-295): 24.2 µM (inactive) | GI50 (A498): 8.36 µM (inactive)

N#CN1CCC=C(c2cc3ccccc3[nH]2)C1
GI50 (KM-20L2): > 448 µM (inactive) | GI50 (SNB-19): > 448 µM (inactive) | GI50 (IGROV-1): 277 µM (inactive) | GI50 (COLO 205): 388 µM (inactive) | GI50 (CCRF-CEM): 188 µM (inactive) | GI50 (KM12): 161 µM (inactive) | GI50 (U-251): 434 µM (inactive) | GI50 (HOP-92): 146 µM (inactive) | GI50 (SK-MEL-2): 279 µM (inactive) | GI50 (CAKI-1): 245 µM (inactive) | GI50 (SK-MEL-5): 148 µM (inactive) | GI50 (SF-295): 313 µM (inactive) | GI50 (OVCAR-8): 300 µM (inactive) | GI50 (SR): 159 µM (inactive)

Cc1cccc(C)c1NC(=O)CCCC(=O)CC(=O)/C=C/c1ccccc1
GI50 (M14): > 100 µM (inactive) | GI50 (KM-20L2): > 100 µM (inactive) | GI50 (SNB-19): > 100 µM (inactive) | GI50 (IGROV-1): > 100 µM (inactive) | GI50 (COLO 205): > 100 µM (inactive) | GI50 (CCRF-CEM): > 100 µM (inactive) | GI50 (KM12): > 100 µM (inactive) | GI50 (U-251): > 100 µM (inactive) | GI50 (HOP-92): > 100 µM (inactive) | GI50 (SK-MEL-2): > 100 µM (inactive) | GI50 (CAKI-1): > 100 µM (inactive) | GI50 (SNB-75): > 100 µM (inactive) | GI50 (SK-MEL-5): > 100 µM (inactive) | GI50 (OVCAR-8): > 100 µM (inactive) | GI50 (A498): > 100 µM (inactive)
